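Protocol summary: plate cells (96-well), add compound at 5 concentrations, incubate 48 h, interpolate endpoints linearly. TGI: concentration producing complete growth inhibition.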
Assays:
Test in all cases: growth of human tumour cells (NCI), 48 h
786-0 renal = tested on: 786-0 renal
SNB-75 CNS = tested on: SNB-75 CNS
K-562 leukemia = tested on: K-562 leukemia
HT29 colon = tested on: HT29 colon
UO-31 renal = tested on: UO-31 renal
SK-MEL-2 melanoma = tested on: SK-MEL-2 melanoma
MOLT-4 leukemia = tested on: MOLT-4 leukemia
T-47D breast = tested on: T-47D breast
HCT-15 colon = tested on: HCT-15 colon
EKVX NSCLC = tested on: EKVX NSCLC
A549 NSCLC = tested on: A549 NSCLC
SK-MEL-5 melanoma = tested on: SK-MEL-5 melanoma
UACC-257 melanoma = tested on: UACC-257 melanoma
UACC-62 melanoma = tested on: UACC-62 melanoma
SF-295 CNS = tested on: SF-295 CNS
SF-539 CNS = tested on: SF-539 CNS
SR leukemia = tested on: SR leukemia
NCI-H460 lung = tested on: NCI-H460 lung
HOP-62 NSCLC = tested on: HOP-62 NSCLC
PC-3 prostate = tested on: PC-3 prostate
SN12C renal = tested on: SN12C renal
OVCAR-3 ovarian = tested on: OVCAR-3 ovarian
MDA-N = tested on: MDA-N
HCC-2998 colon = tested on: HCC-2998 colon
MDA-MB-231 breast = tested on: MDA-MB-231 breast
CAKI-1 renal = tested on: CAKI-1 renal
A498 renal = tested on: A498 renal
CCRF-CEM leukemia = tested on: CCRF-CEM leukemia
MCF7 breast = tested on: MCF7 breast
HCT-116 colon = tested on: HCT-116 colon
HS 578T breast = tested on: HS 578T breast
IGROV1 ovarian = tested on: IGROV1 ovarian
RXF 393 renal = tested on: RXF 393 renal
NCI-H226 lung = tested on: NCI-H226 lung
ACHN renal = tested on: ACHN renal
RPMI-8226 leukemia = tested on: RPMI-8226 leukemia
SNB-19 CNS = tested on: SNB-19 CNS
DU-145 prostate = tested on: DU-145 prostate
SW-620 colon = tested on: SW-620 colon
SK-MEL-28 melanoma = tested on: SK-MEL-28 melanoma
NCI-H522 lung = tested on: NCI-H522 lung
MALME-3M melanoma = tested on: MALME-3M melanoma
BT-549 breast = tested on: BT-549 breast
TK-10 renal = tested on: TK-10 renal
SF-268 CNS = tested on: SF-268 CNS
U251 CNS = tested on: U251 CNS
KM12 colon = tested on: KM12 colon
LOX IMVI melanoma = tested on: LOX IMVI melanoma
OVCAR-8 ovarian = tested on: OVCAR-8 ovarian
HL-60(TB) leukemia = tested on: HL-60(TB) leukemia
OVCAR-5 ovarian = tested on: OVCAR-5 ovarian
NCI/ADR-RES ovarian = tested on: NCI/ADR-RES ovarian
HOP-92 NSCLC = tested on: HOP-92 NSCLC
SK-OV-3 ovarian = tested on: SK-OV-3 ovarian
NCI-H23 lung = tested on: NCI-H23 lung

With `Cc1ccc(C(=O)O)c(/C=C2\Cc3cc(C)cc(C)c3C2=O)c1` the TGI (786-0 renal) was > 100 µM, the TGI (SNB-75 CNS) was > 100 µM and the TGI (K-562 leukemia) was > 100 µM. For the same compound, the TGI (HT29 colon) was > 100 µM, the TGI (UO-31 renal) was > 100 µM and the TGI (SK-MEL-2 melanoma) was > 100 µM. For the same compound, the TGI (MOLT-4 leukemia) was > 100 µM, the TGI (T-47D breast) was > 100 µM and the TGI (HCT-15 colon) was > 100 µM. The TGI (EKVX NSCLC) was > 100 µM, the TGI (A549 NSCLC) was > 100 µM and the TGI (SK-MEL-5 melanoma) was > 100 µM. For the same compound, the TGI (UACC-257 melanoma) was > 100 µM, the TGI (UACC-62 melanoma) was > 100 µM and the TGI (SF-295 CNS) was > 100 µM. The TGI (SF-539 CNS) was > 100 µM, the TGI (SR leukemia) was > 100 µM and the TGI (NCI-H460 lung) was > 100 µM. For the same compound, the TGI (HOP-62 NSCLC) was > 100 µM, the TGI (PC-3 prostate) was > 100 µM and the TGI (SN12C renal) was > 100 µM. For the same compound, the TGI (OVCAR-3 ovarian) was > 100 µM, the TGI (MDA-N) was > 100 µM and the TGI (HCC-2998 colon) was > 100 µM. For the same compound, the TGI (MDA-MB-231 breast) was > 100 µM, the TGI (CAKI-1 renal) was > 100 µM and the TGI (A498 renal) was > 100 µM. The TGI (CCRF-CEM leukemia) was > 100 µM, the TGI (MCF7 breast) was > 100 µM and the TGI (HCT-116 colon) was > 100 µM. For the same compound, the TGI (HS 578T breast) was > 100 µM, the TGI (IGROV1 ovarian) was > 100 µM and the TGI (RXF 393 renal) was > 100 µM. The TGI (NCI-H226 lung) was > 100 µM, the TGI (ACHN renal) was > 100 µM and the TGI (RPMI-8226 leukemia) was > 100 µM. The TGI (SNB-19 CNS) was > 100 µM, the TGI (DU-145 prostate) was > 100 µM and the TGI (SW-620 colon) was > 100 µM. For the same compound, the TGI (SK-MEL-28 melanoma) was > 100 µM, the TGI (NCI-H522 lung) was > 100 µM and the TGI (MALME-3M melanoma) was > 100 µM. For the same compound, the TGI (BT-549 breast) was > 100 µM, the TGI (TK-10 renal) was > 100 µM and the TGI (SF-268 CNS) was > 100 µM. For the same compound, the TGI (U251 CNS) was > 100 µM, the TGI (KM12 colon) was > 100 µM and the TGI (LOX IMVI melanoma) was > 100 µM. The TGI (OVCAR-8 ovarian) was > 100 µM and the TGI (HL-60(TB) leukemia) was > 100 µM.

In the case of `C/C=C(\C)c1cc(=O)c2c(C)cc3c(c2o1)C(OC)(OC(C)=O)c1c(O)c(C2CC(C)(N(C)C)C(OC(C)=O)C(C)O2)cc(C2CC(N(C)C)C(OC(C)=O)C(C)O2)c1C3=O` (configuration not stated), the TGI (786-0 renal) is reported as > 21.4 µM, the TGI (SNB-75 CNS) is reported as 6.44 µM and the TGI (HT29 colon) is reported as > 20.4 µM. The TGI (UO-31 renal) was 4.68 µM, the TGI (MOLT-4 leukemia) was 10.3 µM and the TGI (T-47D breast) was 17.6 µM. For the same compound, the TGI (HCT-15 colon) was 6.9 µM, the TGI (EKVX NSCLC) was 11.6 µM and the TGI (A549 NSCLC) was > 100 µM. For the same compound, the TGI (SK-MEL-5 melanoma) was > 100 µM, the TGI (SF-295 CNS) was 14.6 µM and the TGI (OVCAR-5 ovarian) was 9.75 µM. For the same compound, the TGI (SR leukemia) was 0.842 µM, the TGI (NCI/ADR-RES ovarian) was > 25.7 µM and the TGI (HOP-62 NSCLC) was > 100 µM. The TGI (PC-3 prostate) was > 100 µM, the TGI (SN12C renal) was 5.23 µM and the TGI (HOP-92 NSCLC) was 6.91 µM. For the same compound, the TGI (OVCAR-3 ovarian) was > 41.8 µM, the TGI (MDA-N) was 4.71 µM and the TGI (SK-OV-3 ovarian) was 8.59 µM. For the same compound, the TGI (MDA-MB-231 breast) was 1.49 µM, the TGI (CAKI-1 renal) was 9.39 µM and the TGI (A498 renal) was 3.49 µM. For the same compound, the TGI (CCRF-CEM leukemia) was 10.1 µM, the TGI (MCF7 breast) was > 100 µM and the TGI (HCT-116 colon) was > 34.1 µM. The TGI (HS 578T breast) was 7.63 µM, the TGI (IGROV1 ovarian) was 57.1 µM and the TGI (NCI-H226 lung) was 5.03 µM. The TGI (ACHN renal) was 1.52 µM, the TGI (SNB-19 CNS) was 14.1 µM and the TGI (NCI-H23 lung) was 2.42 µM. It also gave a TGI (DU-145 prostate) of 5.08 µM, a TGI (SW-620 colon) of 4.94 µM and a TGI (SK-MEL-28 melanoma) of 26.1 µM. For the same compound, the TGI (MALME-3M melanoma) was 2.37 µM, the TGI (BT-549 breast) was 7.47 µM and the TGI (TK-10 renal) was > 100 µM. For the same compound, the TGI (SF-268 CNS) was 4.89 µM, the TGI (U251 CNS) was > 20.4 µM and the TGI (KM12 colon) was 8.24 µM.

Source: PubChem BioAssay (NCI)
